Measured values as given in patent US7553969B1, “Substituted phenethylamine derivatives” (Chugai Seiyaku Kabushiki Kaisha, priority 1999, dated 2009).
Where a SMILES comes first, the peptide text is derived from it. [ ]: non-standard residue; d: D form. The star is where a group is joined. ξ: configuration not given here. NMeTyr(3-tBu) = CN[C@@H](Cc1ccc(O)c(C(C)(C)C)c1)C(=O)O; ξNMeTyr(3-tBu) = CNC(Cc1ccc(O)c(C(C)(C)C)c1)C(=O)O; Tyr(3-tBu) = CC(C)(C)c1cc(C[C@H](N)C(=O)O)ccc1O; Phe(3,4-F2) = N[C@@H](Cc1ccc(F)c(F)c1)C(=O)O; NMePhe(4-F) = CN[C@@H](Cc1ccc(F)cc1)C(=O)O; Phe(4-Cl) = N[C@@H](Cc1ccc(Cl)cc1)C(=O)O; Phe(4-F) = N[C@@H](Cc1ccc(F)cc1)C(=O)O; NMetBuAla = CN[C@@H](CC(C)(C)C)C(=O)O; NMeChg = CN[C@H](C(=O)O)C1CCCCC1; NMePhg = CN[C@H](C(=O)O)c1ccccc1; ξW = NC(Cc1c[nH]c2ccccc12)C(=O)O; NMeV = CN[C@H](C(=O)O)C(C)C; NHiPr = CC(C)N*

How the values were obtained:
motilin receptor = biological target: T1, motilin receptor (Oryctolagus cuniculus, UniProt G1T803); experiment: Motilin receptor binding test (125I motilin, rabbit duodenum protein sample); conditions: 125I motilin 25 pM, concentration reducing specific binding by 50%
T1 construct: homogenized in 50 mM Tris buffer to prepare a protein sample; from tissue; host or cells: rabbit duodenum homogenate (mucous membrane separated)
T1 sequence (G1T803 1-400): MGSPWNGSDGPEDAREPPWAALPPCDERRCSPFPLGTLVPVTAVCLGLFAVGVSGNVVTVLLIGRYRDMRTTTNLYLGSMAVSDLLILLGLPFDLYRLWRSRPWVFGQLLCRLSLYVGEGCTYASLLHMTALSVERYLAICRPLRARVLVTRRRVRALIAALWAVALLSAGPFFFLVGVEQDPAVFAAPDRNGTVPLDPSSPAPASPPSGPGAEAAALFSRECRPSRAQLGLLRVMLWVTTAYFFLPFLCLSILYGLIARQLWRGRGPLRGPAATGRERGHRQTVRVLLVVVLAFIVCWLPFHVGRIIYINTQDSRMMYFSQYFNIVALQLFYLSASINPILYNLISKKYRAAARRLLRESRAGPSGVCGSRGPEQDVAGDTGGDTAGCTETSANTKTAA
Procedure: Motilin receptor binding test
A motilin receptor binding test was conducted in the following manner [Vantrappen et al., Regul. Peptides, 15, 143 (1986)]. The duodenum was extracted from a slaughtered rabbit, had the mucous membrane separated and homogenized in 50 mM Tris buffer to prepare a protein sample. The protein sample was incubated together with ^125I motilin 25 pM and thereafter the radioactivity bound to the protein was measured. Specific binding was defined as the difference between the radioactivity in the case of adding a great excess amount of motilin (10^−7 M) and that in the case of no adding. The activity of the compound was expressed by IC50 (in nM), as the concentration sufficient to reduce the specific binding by 50%.

[1] = system: specimen of longitudinal muscle in the duodenum extracted from a rabbit (motilin-induced contraction); experiment: Action on the motilin-induced contraction of a specimen of longitudinal muscle in the duodenum extracted from a rabbit; conditions: Oryctolagus cuniculus, organ bath, Krebs solution 28° C., read-out: Contraction suppressing test, pA2 (converted)
Procedure: Action on the Contraction of a Specimen of Longitudinal Muscle in the Duodenum Extracted from a Rabbit
The action on the motilin-induced contraction of a specimen of longitudinal muscle in the duodenum extracted from a rabbit was investigated by the following method. A duodenum specimen (5×15 mm) extracted from a slaughtered rabbit was suspended in an organ bath (10 ml) such that the longitudinal muscle would run vertically; the bath was filled with a Krebs solution kept at 28° C. A mixed gas (95% O2 and 5% CO2) was continuously bubbled into the Krebs solution and the contraction of the duodenum specimen was recorded isotonically (with a 1-g load) via an isotonic transducer (ME-3407, ME Commercial, Tokyo, Japan). The degree of contraction was expressed in relative values, with the contraction by acetylcholine at a dose of 10^−4 M being taken as 100%. The activity of the compound was calculated as pA2 value indicating its effect on the dose-dependent muscle contraction by the motilin put into the organ bath.

Compound | IC50 (motilin receptor) | Kb [1]
CNC(=O)[C@H](Cc1ccc(O)c(C(C)(C)C)c1)NC(=O)[C@H](C(C)C)N(C)C(=O)[C@H](Cc1ccc(F)cc1)NC [Example 32, N-Me-Phe(4-F)-N-Me-Val-Tyr(3-tBu)-NHMe] (H-[NMePhe(4-F)]-[NMeV]-[Tyr(3-tBu)]-NHMe) | 0.76 nM | 0.794 nM
CCOC(=O)CN1CCN(C(=O)[C@H](Cc2ccc(O)c(C(C)(C)C)c2)N(C)C(=O)[C@H](C(C)C)N(C)C(=O)[C@@H](N)Cc2ccc(F)cc2)CC1 [Example 135, ethyl 2-[4-((2S)-2-{(2S)-2-[(2S)-2-amino-3-(4-fluorophenyl)-N-methylpropanolyamino]-3,N-dimethylbutanoylamino}-3-[3-(tert-butyl)-4-hydroxyphenyl]propanoyl)piperazinyl]acetate] | 0.7 nM | 3.16 nM
CC(C)[C@@H](C(=O)N(C)[C@@H](Cc1ccc(O)c(C(C)(C)C)c1)C(=O)NCO)N(C)C(=O)[C@@H](N)Cc1ccc(F)cc1 [Example 132, Phe(4-F)-N-Me-Val-N-Me-Tyr(3-tBu)-NHCH2OH] | 0.86 nM | 1.26 nM
CCN(C(=O)[C@H](C(C)C)N(C)C(=O)[C@@H](N)Cc1ccc(F)cc1)[C@@H](Cc1ccc(O)c(C(C)(C)C)c1)C(N)=O [Example 39, Phe(4-F)-N-Me-Val-N-Et-Tyr(3-tBu)-NH2] | 2 nM | 2 nM
CC(C)[C@@H](C(=O)N(C)[C@@H](Cc1ccc(O)c(C(C)(C)C)c1)C(N)=O)N(C)C(=O)[C@@H](N)Cc1ccc(F)c(F)c1 [Example 3, Phe(3,4-F2)-N-Me-Val-N-Me-Tyr(3-tBu)-NH2] (H-[Phe(3,4-F2)]-[NMeV]-[NMeTyr(3-tBu)]-NH2) | 1.5 nM | 2 nM
CC(C)[C@@H](C(=O)N(C)[C@@H](Cc1ccc(O)c(C(C)(C)C)c1)C(N)=O)N(C)C(=O)[C@@H](N)Cc1ccc(Cl)cc1 [Example 2, Phe(4-Cl)-N-Me-Val-N-Me-Tyr(3-tBu)-NH2] (H-[Phe(4-Cl)]-[NMeV]-[NMeTyr(3-tBu)]-NH2) | 0.71 nM | 2 nM
CC(C)[C@@H](C(=O)N(C)[C@@H](Cc1ccc(O)c(C(C)(C)C)c1)C(N)=O)N(C)C(=O)[C@@H](N)Cc1ccc(O)cc1F [Example 26, Tyr(2-F)-N-Me-Val-N-Me-Tyr(3-tBu)-NH2] | 7.3 nM | 10 nM
CC(C)[C@@H](C(=O)N[C@@H](Cc1ccc(O)c(C(C)(C)C)c1)c1nnc[nH]1)N(C)C(=O)[C@@H](N)Cc1ccc(F)cc1 [Example 24, 2-((2-amino-3-(4-fluorophenyl)propionyl)-N-methylamino)-3-methylbutyric acid 2-(3-t-butyl-4-hydroxyphenyl)-1-(1,3,4-triazol-2-yl)ethylamide] | 0.94 nM | 0.794 nM
CC(C)[C@@H](C(=O)N(C)[C@@H](Cc1ccc(O)c(C(C)(C)C)c1)C(N)=O)N(C)C(=O)[C@@H](N)Cc1ccc(F)cc1 [Example 1, Phe(4-F)-N-Me-Val-N-Me-Tyr(3-tBu)-NH2] (H-[Phe(4-F)]-[NMeV]-[NMeTyr(3-tBu)]-NH2) | 0.89 nM | 1.58 nM
CN(C(=O)[C@@H](N)Cc1ccc(F)cc1)[C@H](C(=O)N(C)[C@@H](Cc1ccc(O)c(C(C)(C)C)c1)C(N)=O)c1ccccc1 [Example 166, Phe(4-F)-N-Me-Phg-N-Me-Tyr(3-tBu)-NH2] (H-[Phe(4-F)]-[NMePhg]-[NMeTyr(3-tBu)]-NH2) | 1.8 nM | 0.158 nM
CN(C(=O)[C@@H](N)Cc1ccc(F)cc1)[C@@H](CC(C)(C)C)C(=O)N(C)[C@@H](Cc1ccc(O)c(C(C)(C)C)c1)C(N)=O [Example 148, Phe(4-F)-N-Me-Leu(γ-Me)-N-Me-Tyr(3-tBu)-NH2] (H-[Phe(4-F)]-[NMetBuAla]-[NMeTyr(3-tBu)]-NH2) | 4.1 nM | 3.98 nM

These reach a lower IC50 (motilin receptor). Values come first.

IC50 (motilin receptor) | Compound | Kb [1]
0.6 nM | CNC(=O)[C@H](Cc1ccc(O)c(C(C)(C)C)c1)N(C)C(=O)[C@H](C(C)C)N(C)C(=O)[C@H](Cc1ccc(F)cc1)NC [Example 37, N-Me-Phe(4-F)-N-Me-Val-N-Me-Tyr(3-tBu)-NHMe] (H-[NMePhe(4-F)]-[NMeV]-[NMeTyr(3-tBu)]-NHMe) | 1.58 nM
0.57 nM | CC(C)[C@@H](C(=O)N(C)C(Cc1ccc(O)c(C(C)(C)C)c1)C(N)=O)N(C)C(=O)C(N)Cc1c[nH]c2ccccc12 (stereo partly drawn) [Example 183, Trp-N-Me-Val-N-Me-Tyr(3-tBu)-NH2] (H-[ξW]-[NMeV]-[ξNMeTyr(3-tBu)]-NH2) | 0.316 nM
0.52 nM | CC(C)[C@@H](C(=O)N[C@@H](Cc1ccc(O)c(C(C)(C)C)c1)c1ncno1)N(C)C(=O)[C@@H](N)Cc1ccc(F)cc1 [Example 22, 2-((2-amino-3-(4-fluorophenyl)propionyl)-N-methylamino)-3-methylbutyric acid 2-(3-t-butyl-4-hydroxyphenyl)-1-(1,2,4-oxadiazol-5-yl)ethylamide] | 5.01 nM
0.45 nM | CN[C@@H](Cc1ccc(F)cc1)C(=O)N(C)[C@H](C(=O)N[C@@H](Cc1ccc(O)c(C(C)(C)C)c1)C(N)=O)C(C)C [Example 29, N-Me-Phe(4-F)-N-Me-Val-Tyr(3-tBu)-NH2] (H-[NMePhe(4-F)]-[NMeV]-[Tyr(3-tBu)]-NH2) | 2 nM
0.41 nM | CC(C)[C@@H](C(=O)N[C@@H](Cc1ccc(O)c(C(C)(C)C)c1)CS(C)(=O)=O)N(C)C(=O)[C@@H](N)Cc1ccc(F)cc1 [Example 16, 2-((2-amino-3-(4-fluorophenyl)propionyl)-N-methylamino)-3-methylbutyric acid 2-(3-t-butyl-4-hydroxyphenyl)-1-methanesulfonylmethylethylamide] | 0.398 nM
0.36 nM | CN(C(=O)[C@@H](N)Cc1ccc(F)cc1)[C@H](C(=O)N(C)[C@@H](Cc1ccc(O)c(C(C)(C)C)c1)C(N)=O)C1CCCCC1 [Example 151, Phe(4-F)-N-Me-Chg-N-Me-Tyr(3-tBu)-NH2] (H-[Phe(4-F)]-[NMeChg]-[NMeTyr(3-tBu)]-NH2) | 6.31 nM
0.31 nM | CCNC(=O)[C@H](Cc1ccc(O)c(C(C)(C)C)c1)N(C)C(=O)[C@H](C(C)C)N(C)C(=O)[C@H](Cc1ccc(F)cc1)NC [Example 105, N-Me-Phe(4-F)-N-Me-Val-N-Me-Tyr(3-tBu)-NHEt] (H-[NMePhe(4-F)]-[NMeV]-[NMeTyr(3-tBu)]-NHEt) | 0.158 nM
0.27 nM | CC(C)NC(=O)[C@H](Cc1ccc(O)c(C(C)(C)C)c1)NC(=O)[C@H](C(C)C)N(C)C(=O)[C@@H](N)Cc1ccc(F)cc1 [Example 120, Phe(4-F)-N-Me-Val-Tyr(3-tBu)-NH-i-Pr] (H-[Phe(4-F)]-[NMeV]-[Tyr(3-tBu)]-NHiPr) | 1 nM
0.27 nM | CC(C)[C@@H](C(=O)N[C@@H](Cc1ccc(O)c(C(C)(C)C)c1)c1nnco1)N(C)C(=O)[C@@H](N)Cc1ccc(F)cc1 [Example 21, 2-((2-amino-3-(4-fluorophenyl)propionyl)-N-methylamino)-3-methylbutyric acid 2-(3-t-butyl-4-hydroxyphenyl)-1-(1,3,4-oxadiazol-2-yl)ethylamide] | 0.158 nM
0.17 nM | CCNC(=O)[C@H](Cc1ccc(O)c(C(C)(C)C)c1)N(CC)C(=O)[C@H](C(C)C)N(C)C(=O)[C@H](Cc1ccc(F)cc1)NCC [Example 109, N-Et-Phe(4-F)-N-Me-Val-N-Et-Tyr(3-tBu)-NHEt] | 2 nM
